# Experimental data taken from patent publication US6737383B1, “Herbicidal oxadiazolidines” (priority 1999, dated 2004).
# Columns and labels:
# [1] = tested on: bedstraw; assay: Test B pre/postemergence bedstraw; type: in vivo, Galium aparine
# How it was run: (§1)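 Herbicidal effect was estimated by eye on a ten-point control scale after plants spent twelve to sixteen days in a greenhouse following soil or foliar treatment. Foliar sprays targeted plants at one to four leaves; all doses were formulated in a non-phytotoxic solvent with surfactant.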
# [2] = tested on: blackgrass; assay: Test B pre/postemergence blackgrass; type: in vivo, Alopecurus myosuroides
# How it was run: as §1
# [3] = tested on: surinam grass; assay: Test B pre/postemergence surinam grass; type: in vivo, Brachiaria decumbens
# How it was run: as §1
# [4] = tested on: cocklebur; assay: Test B pre/postemergence cocklebur; type: in vivo, Xanthium strumarium
# How it was run: as §1
# [5] = tested on: giant foxtail; assay: Test B pre/postemergence giant foxtail; type: in vivo, Setaria faberii
# How it was run: as §1
# [6] = tested on: morningglory; assay: Test B pre/postemergence morningglory; type: in vivo, Ipomoea hederacea
# How it was run: as §1
# [7] = tested on: pigweed; assay: Test B pre/postemergence pigweed; type: in vivo, Amaranthus retroflexus
# How it was run: as §1
# [8] = tested on: rape; assay: Test B pre/postemergence rape; type: in vivo, Brassica napus
# How it was run: as §1
# [9] = tested on: soybean; assay: Test B pre/postemergence soybean; type: in vivo, Glycine max
# How it was run: as §1
# [10] = tested on: velvetleaf; assay: Test B pre/postemergence velvetleaf; type: in vivo, Abutilon theophrasti
# How it was run: as §1
# [11] = tested on: wheat; assay: Test B pre/postemergence wheat; type: in vivo, Triticum aestivum
# How it was run: as §1
# [12] = tested on: wild oat; assay: Test B pre/postemergence wild oat; type: in vivo, Avena fatua
# How it was run: as §1
# [13] = tested on: purple nutsedge; assay: Test B pre/postemergence purple nutsedge; type: in vivo, Cyperus rotundus
# How it was run: as §1
# [14] = tested on: smallflower flatsedge; assay: Test B flood test smallflower flatsedge; type: in vivo, Cyperus difformis
# How it was run: (§2)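 Read-out is a visual response score from 0 (no effect) to 10 (complete control), assigned by comparison with untreated controls. Treatment was applied at the 2-leaf stage, and plants stayed in the greenhouse for twelve to sixteen days before scoring.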
# [15] = tested on: duck salad; assay: Test B flood test duck salad; type: in vivo, Heteranthera limosa
# How it was run: as §2
# [16] = tested on: bamyardgrass; assay: Test B flood test barnyardgrass; type: in vivo, Echinochloa crus-galli
# How it was run: as §2
# [17] = Postemergence, Rate 125 g/ha, scale of 0 to 10 where 0 is no effect and 10 is complete control
# [18] = Preemergence, Rate 62 g/ha, scale of 0 to 10 where 0 is no effect and 10 is complete control
# [19] = Preemergence, Rate 125 g/ha, 0 is no effect, 10 is complete control
# [20] = Preemergence, Rate 250 g/ha, scale 0 to 10, 0 is no effect, 10 is complete control
# [21] = Preemergence, Rate 500 g/ha, scale 0 to 10 (0 no effect, 10 complete control)
# [22] = Rate 62 g/ha, Postemergence, scale of 0 to 10 where 0 is no effect and 10 is complete control
# [23] = Rate 250 g/ha, Postemergence, scale 0 to 10, 0 is no effect, 10 is complete control
# [24] = Rate 500 g/ha, Postemergence, scale 0 to 10
# [25] = Postemergence (flood test species), Rate 125 g/ha, scale of 0 to 10 where 0 is no effect and 10 is complete control
# [26] = Rate 62 g/ha, Postemergence section, flood test species, scale of 0 to 10 where 0 is no effect and 10 is complete control
# [27] = Rate 250 g/ha, Postemergence (flood test), scale 0 to 10, 0 is no effect, 10 is complete control
# [28] = Rate 500 g/ha, listed under Postemergence (flood test species), scale 0 to 10
compound,measurement,setting,value
CC(C)N(C(=O)n1oc(=O)[nH]c1=O)c1ccc(F)cc1 [Compound 164],Bedstraw plant response rating,[1]; [17],0
same,Bedstraw plant response rating,[1]; [18],0
same,Bedstraw plant response rating (0 to 10 scale),[1]; [19],0
same,Bedstraw plant response rating,[1]; [20],0
same,Bedstraw plant response rating,[1]; [21],0
same,Bedstraw plant response rating,[1]; [22],0
same,Blackgrass plant response rating,[2]; [17],0
same,Blackgrass plant response rating,[2]; [18],0
same,Blackgrass plant response rating (0 to 10 scale),[2]; [19],0
same,Blackgrass plant response rating,[2]; [20],0
same,Blackgrass plant response rating,[2]; [21],0
same,Blackgrass plant response rating,[2]; [22],0
same,"Plant response rating, Blackgrass",[2]; [23],0
same,Blackgrass plant response rating,[2]; [24],0
same,B. signalgrass plant response rating,[3]; [17],0
same,B. signalgrass plant response rating,[3]; [18],0
same,B. signalgrass plant response rating (0 to 10 scale),[3]; [19],0
same,B. signalgrass plant response rating,[3]; [20],0
same,B. signalgrass plant response rating,[3]; [21],0
same,B. signalgrass plant response rating,[3]; [22],0
same,"Plant response rating, B. signalgrass",[3]; [23],0
same,B. signalgrass plant response rating,"[3]; Rate 500 g/ha, Postemergence, scale 0 to 10, 0 no effect, 10 complete control",0
same,Cocklebur plant response rating,[4]; [17],0
same,Cocklebur plant response rating,[4]; [18],0
same,Cocklebur plant response rating (0 to 10 scale),[4]; [19],0
same,Cocklebur plant response rating,[4]; [20],0
same,Cocklebur plant response rating,[4]; [21],0
same,Cocklebur plant response rating,[4]; [22],0
same,"Plant response rating, Cocklebur",[4]; [23],0
same,Cocklebur plant response rating,[4]; [24],0
same,Giant foxtail plant response rating,[5]; [17],0
same,Giant foxtail plant response rating,[5]; [18],0
same,Giant foxtail plant response rating (0 to 10 scale),[5]; [19],0
same,Giant foxtail plant response rating,[5]; [20],0
same,Giant foxtail plant response rating,[5]; [21],2
same,Giant foxtail plant response rating,[5]; [22],0
same,"Plant response rating, Giant foxtail",[5]; [23],0
same,Giant foxtail plant response rating,[5]; [24],7
same,Morningglory plant response rating,[6]; [17],0
same,Morningglory plant response rating,[6]; [18],0
same,Morningglory plant response rating (0 to 10 scale),[6]; [19],0
same,Morningglory plant response rating,[6]; [20],0
same,Morningglory plant response rating,[6]; [21],0
same,Morningglory plant response rating,[6]; [22],0
same,"Plant response rating, Morningglory",[6]; [23],0
same,Morningglory plant response rating,[6]; [24],2
same,Redroot pigweed plant response rating,[7]; [17],0
same,Redroot pigweed plant response rating,[7]; [18],0
same,Redroot pigweed plant response rating (0 to 10 scale),[7]; [19],0
same,Redroot pigweed plant response rating,[7]; [20],0
same,Redroot pigweed plant response rating,[7]; [21],0
same,Redroot pigweed plant response rating,[7]; [22],0
same,"Plant response rating, Redroot pigweed",[7]; [23],0
same,Redroot pigweed plant response rating,[7]; [24],0
same,Rape plant response rating,[8]; [17],0
same,Rape plant response rating,[8]; [18],0
same,Rape plant response rating (0 to 10 scale),[8]; [19],0
same,Rape plant response rating,[8]; [20],0
same,Rape plant response rating,[8]; [21],0
same,Rape plant response rating,[8]; [22],0
same,"Plant response rating, Rape",[8]; [23],0
same,Rape plant response rating,[8]; [24],0
same,Soybean plant response rating,[9]; [17],1
same,Soybean plant response rating,[9]; [18],0
same,Soybean plant response rating (0 to 10 scale),[9]; [19],0
same,Soybean plant response rating,[9]; [20],0
same,Soybean plant response rating,[9]; [21],0
same,Soybean plant response rating,[9]; [22],0
same,"Plant response rating, Soybean",[9]; [23],2
same,Soybean plant response rating,[9]; [24],2
same,Velvetleaf plant response rating,[10]; [18],0
same,Velvetleaf plant response rating (0 to 10 scale),[10]; [19],0
same,Velvetleaf plant response rating,[10]; [20],0
same,Velvetleaf plant response rating,[10]; [21],0
same,"Plant response rating, Velvetleaf",[10]; [23],0
same,Velvetleaf plant response rating,[10]; [24],0
same,Wheat plant response rating,[11]; [18],0
same,Wheat plant response rating (0 to 10 scale),[11]; [19],0
same,Wheat plant response rating,[11]; [20],0
same,Wheat plant response rating,[11]; [21],0
same,"Plant response rating, Wheat",[11]; [23],0
same,Wheat plant response rating,[11]; [24],0
same,Wild oats plant response rating,[12]; [18],0
same,Wild oats plant response rating (0 to 10 scale),[12]; [19],0
same,Wild oats plant response rating,[12]; [20],0
same,Wild oats plant response rating,[12]; [21],0
same,"Plant response rating, Wild oats",[12]; [23],0
same,Wild oats plant response rating,[12]; [24],0
same,Nutsedge plant response rating,[13]; [17],0
same,Nutsedge plant response rating,[13]; [18],0
same,Nutsedge plant response rating (0 to 10 scale),[13]; [19],0
same,Nutsedge plant response rating,[13]; [20],0
same,Nutsedge plant response rating,[13]; [21],0
same,Nutsedge plant response rating,[13]; [22],0
same,"Plant response rating, Nutsedge",[13]; [23],0
same,Nutsedge plant response rating,[13]; [24],0
same,S. Flatsedge plant response rating,[14]; [25],0
same,S. Flatsedge plant response rating,[14]; [26],0
same,"Plant response rating, S. Flatsedge",[14]; [27],0
same,S. Flatsedge plant response rating,[14]; [28],0
same,Ducksalad plant response rating,[15]; [25],0
same,Ducksalad plant response rating,[15]; [26],0
same,"Plant response rating, Ducksalad",[15]; [27],0
same,Ducksalad plant response rating,[15]; [28],0
same,Barnyardgrass plant response rating,[16]; [25],0
same,Barnyardgrass plant response rating,[16]; [26],0
same,"Plant response rating, Barnyardgrass",[16]; [27],0
same,Barnyardgrass plant response rating,[16]; [28],0
